Blank lines part the entries; values can stand above or below the molecule they belong to.
How the values were obtained:
[1] = target: T1, PKK in kaolin activated human platelet poor plasma (Homo sapiens, UniProt P03952); experiment: Inhibition of PKK in kaolin activated human PPP; type: biochemical; details: 25-750 μg/mL kaolin, global fit, text b200 calls the values IC90;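 further: readout is the rate of fluorogenic substrate cleavage in rfu per min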
T1 construct: Platelet poor plasma (PPP) obtained from human wholeblood; from tissue
Protocol: Platelet poor plasma (PPP) obtained from human wholeblood, anticoagulated with Na-Citrate, is incubated with various concentrations of the test compound together with either 25, 75, 250, or 750 μg/mL kaolin in assay buffer for 20 min at 37° C. such that for each kaolin dose used a concentration response is obtained for the test compound.

Human PKK = target: T2, Human PKK (Homo sapiens, UniProt P03952); experiment: Inhibition of PKK using an endpoint assay (human PKK); type: biochemical; details: fluorogenic substrate H-Pro-Phe-Arg-AMC, 1 h room temperature, method names human or rat PKK, table does not say which
T2 construct: purchased Enzyme Research Laboratories
Protocol: The ability of compounds of formula (I) to inhibit plasma kallikrein (PKK), Factor XIIa (FXIIa), Factor XIa (FXIa), Factor Xa (FXa), Factor IIa (alpha-thrombin; FIIa), plasmin, trypsin, tissue kallikrein 1 (TK1), Factor VIIa (FVIIa), or FVIIa complexed with Tissue Factor, phospholipids and CaCl2 (FVIIa/TF/PL/CaCl2) is determined using the following biochemical assays in assay buffer (100 mM Tris, 150 mM NaCL, adjusted to a pH of 7.8 with HCl, and containing 0.1% (w/v) BSA and 0.05% (v/v) Tween20) in the presence of 1% (v/v) DMSO:
Subsequently, PPACK II (Calbiochem) is added as a stop solution to achieve a final concentration of 1 μM and fluorescence is measured using an Envision Reader (PerkinElmer) with the wavelength excitation setting of 355 nm and the wavelength emission setting of 460 nm.

T2 sequence (P03952 20-390 limits assumed): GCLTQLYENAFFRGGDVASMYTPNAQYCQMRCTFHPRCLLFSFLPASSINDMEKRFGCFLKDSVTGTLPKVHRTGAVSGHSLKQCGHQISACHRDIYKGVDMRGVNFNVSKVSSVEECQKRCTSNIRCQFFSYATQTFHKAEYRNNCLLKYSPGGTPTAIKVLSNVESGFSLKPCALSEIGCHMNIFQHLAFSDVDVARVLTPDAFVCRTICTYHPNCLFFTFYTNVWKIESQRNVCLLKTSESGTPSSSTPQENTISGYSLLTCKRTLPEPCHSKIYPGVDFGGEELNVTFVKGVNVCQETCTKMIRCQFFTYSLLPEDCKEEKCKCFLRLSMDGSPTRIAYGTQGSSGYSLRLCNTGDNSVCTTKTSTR
T2 sequence (P03952 391-638 limits assumed): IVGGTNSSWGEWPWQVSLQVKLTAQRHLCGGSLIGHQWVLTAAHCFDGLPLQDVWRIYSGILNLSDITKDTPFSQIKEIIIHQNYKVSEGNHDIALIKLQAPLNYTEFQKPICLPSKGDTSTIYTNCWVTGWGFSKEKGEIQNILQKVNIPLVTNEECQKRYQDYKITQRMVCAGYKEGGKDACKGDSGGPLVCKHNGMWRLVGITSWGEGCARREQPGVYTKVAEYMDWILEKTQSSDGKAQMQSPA
T1 sequence (P03952 391-638 limits assumed): as above
T1 sequence (P03952 20-390 limits assumed): as the sequence (P03952 20-390 limits assumed) above

SMILES: Cn1cnc2c1CC[C@H]2NC(=O)c1cn(Cc2ccc(N3CC4(CC4)C3)nc2F)nn1 [Example 10, 1-[(6-{5-Azaspiro[2.3]hexan-5-yl}-2-fluoropyridin-3-yl)methyl]-N-[(4R)-1-methyl-1H,4H,5H,6H-cyclo-penta[d]imidazol-4-yl]-1H-1,2,3-triazole-4-carboxamide]
IC50 [1]: 789 nM | IC50 (Human PKK): 2.5 nM

SMILES: Cn1cnc2c1CC[C@H]2NC(=O)c1cn(Cc2ccc(N3CC4(CC4)C3)nc2F)cn1 [Example 11, 1-[(6-{5-Azaspiro[2.3]hexan-5-yl}-2-fluoropyridin-3-yl)methyl]-N-[(4R)-1-methyl-1H,4H,5H,6H-cyclopenta[d]imidazol-4-yl]-1H-imidazole-4-carboxamide]
IC50 [1]: 300 nM | IC50 (Human PKK): 2.1 nM

SMILES: Cn1cnc2c1CC[C@H]2NC(=O)c1cnn(Cc2ccc(N3CC4(CC4)C3)nc2F)c1 [Example 12, 1-[(6-{5-Azaspiro[2.3]hexan-5-yl}-2-fluoropyridin-3-yl)methyl]-N-[(4R)-1-methyl-1H,4H,5H,6H-cyclopenta[d]imidazol-4-yl]-1H-pyrazole-4-carboxamide]
IC50 [1]: 802 nM | IC50 (Human PKK): 3.4 nM

SMILES: Cn1cnc2c1CC[C@H]2NC(=O)c1cnn(Cc2ccc(N3CC4(CC4)C3)nc2Br)c1 [Example 13, 1-[(6-{5-Azaspiro[2.3]hexan-5-yl}-2-bromopyridin-3-yl)methyl]-N-[(4R)-1-methyl-1H,4H,5H,6H-cyclopenta[d]imidazol-4-yl]-1H-pyrazole-4-carboxamide]
IC50 [1]: 451 nM | IC50 (Human PKK): 1.1 nM

SMILES: Cn1cnc2c1CC[C@H]2NC(=O)c1cnn(Cc2ccc(N3CC4C(C3)C4(F)F)nc2Br)c1 (stereo partly drawn) [Example 15, 1-[(2-Bromo-6-{6,6-difluoro-3-azabicyclo-[3.1.0]hexan-3-yl}pyridin-3-yl)methyl]-N-[(4R)-1-methyl-1H,4H,5H,6H-cyclopenta[d]imidazol-4-yl]-1H-pyrazole-4-carboxamide]
IC50 [1]: 414 nM | IC50 (Human PKK): 1.1 nM

SMILES: Cn1cnc2c1CC[C@H]2NC(=O)c1cn(Cc2ccc(N3CC4CC4C3)nc2F)nn1 (stereo partly drawn) [Example 17, 1-[(6-{3-Azabicyclo[3.1.0]hexan-3-yl}-2-fluoropyridin-3-yl)methyl]-N-[(4R)-1-methyl-1H,4H,5H,6H-cyclo-penta[d]imidazol-4-yl]-1H-1,2,3-triazole-4-carboxamide]
IC50 [1]: 818 nM | IC50 (Human PKK): 2 nM

SMILES: Cn1cnc2c1CC[C@H]2NC(=O)c1cnn(Cc2ccc(N3CC4C(C3)C4(F)F)nc2F)c1 (stereo partly drawn) [Example 18, 1-[(6-{6,6-Difluoro-3-azabicyclo[3.1.0]hexan-3-yl}-2-fluoropyridin-3-yl)methyl]-N-[(4R)-1-methyl-1H,4H,5H,6H-cyclopenta[d]imidazol-4-yl]-1H-pyrazole-4-carboxamide]
IC50 [1]: 460 nM | IC50 (Human PKK): 2.1 nM

SMILES: Cn1cnc2c1CC[C@H]2NC(=O)c1cn(Cc2ccc(N3CC4(CC4)C3)nc2)nn1 [Example 26, 1-[(6-{5-Azaspiro[2.3]hexan-5-yl}pyridin-3-yl)-methyl]-N-[(4R)-1-methyl-1H,4H,5H,6H-cyclopenta[d]imidazol-4-yl]-1H-1,2,3-triazole-4-carboxamide]
IC50 [1]: 343 nM | IC50 (Human PKK): 4.9 nM

SMILES: CCCc1nc(N2CC3CC3C2)ccc1Cn1cnc(C(=O)N[C@@H]2CCc3c2ncn3C)c1 (stereo partly drawn) [Example 31, 1-[(6-{3-Azabicyclo[3.1.0]hexan-3-yl}-2-propylpyridin-3-yl)methyl]-N-[(4R)-1-methyl-1H,4H,5H,6H-cyclopenta[d]imidazol-4-yl]-1H-imidazole-4-carboxamide]
IC50 [1]: 973 nM | IC50 (Human PKK): 5.3 nM

SMILES: Cn1cnc2c1CC[C@H]2NC(=O)c1cn(Cc2ccc(N3CC4CC4C3)nc2Cl)nn1 (stereo partly drawn) [Example 32, 1-[(6-{3-Azabicyclo[3.1.0]hexan-3-yl}-2-chloropyridin-3-yl)methyl]-N-[(4R)-1-methyl-1H,4H,5H,6H-cyclopenta-[d]imidazol-4-yl]-1H-1,2,3-triazole-4-carboxamide]
IC50 [1]: 548 nM | IC50 (Human PKK): 1.1 nM

SMILES: Cn1cnc2c1CC[C@H]2NC(=O)c1cn(Cc2ccc(N3CC4C(C3)C4(F)F)nc2)nn1 (stereo partly drawn) [Example 33, 1-[(6-{6,6-Difluoro-3-azabicyclo[3.1.0]hexan-3-yl}pyridin-3-yl)methyl]-N-[(4R)-1-methyl-1H,4H,5H,6H-cyclo-penta[d]imidazol-4-yl]-1H-1,2,3-triazole-4-carboxamide]
IC50 [1]: 265 nM | IC50 (Human PKK): 2.5 nM

SMILES: Cn1cnc2c1CC[C@H]2NC(=O)c1cn(Cc2ccc(N3CC4CC4C3)nc2Br)nn1 (stereo partly drawn) [Example 34, 1-[(6-{3-Azabicyclo[3.1.0]hexan-3-yl}-2-bromopyridin-3-yl)methyl]-N-[(4R)-1-methyl-1H,4H,5H,6H-cyclopenta-[d]imidazol-4-yl]-1H-1,2,3-triazole-4-carboxamide]
IC50 [1]: 1190 nM | IC50 (Human PKK): 0.9 nM

The remaining molecules from weak to strong by IC50 [1], led by results:

IC50 [1]: 636 nM | IC50 (Human PKK): 1 nM
SMILES: Cn1cnc2c1CC[C@H]2NC(=O)c1cn(Cc2ccc(N3CC4C(C3)C4(F)F)nc2Br)nn1 (stereo partly drawn) [Example 14, 1-[(2-Bromo-6-{6,6-difluoro-3-azabicyclo-[3.1.0]hexan-3-yl}pyridin-3-yl)methyl]-N-[(4R)-1-methyl-1H,4H,5H,6H-cyclopenta[d]imidazol-4-yl]-1H-1,2,3-triazole-4-carboxamide]

IC50 [1]: 336 nM | IC50 (Human PKK): 2.6 nM
SMILES: Cn1cnc2c1CC[C@H]2NC(=O)c1cn(Cc2cnc(N3CC4CC4C3)nc2C(F)F)cn1 (stereo partly drawn) [Example 29, 1-[(2-{3-Azabicyclo[3.1.0]hexan-3-yl}-4-(difluoromethyl)-pyrimidin-5-yl)methyl]-N-[(4R)-1-methyl-1H,4H,5H,6H-cyclopenta[d]imidazol-4-yl]-1H-imidazole-4-carboxamide]

IC50 [1]: 334 nM | IC50 (Human PKK): 0.9 nM
SMILES: Cn1cnc2c1CC[C@H]2NC(=O)c1cn(Cc2ccc(N3CC4CC4C3)nc2C(F)F)nn1 (stereo partly drawn) [Example 30, 1-[(6-{3-Azabicyclo[3.1.0]hexan-3-yl}-2-(difluoromethyl)-pyridin-3-yl)methyl]-N-[(4R)-1-methyl-1H,4H,5H,6H-cyclo-penta[d]imidazol-4-yl]-1H-1,2,3-triazole-4-carboxamide]

IC50 [1]: 325 nM | IC50 (Human PKK): 0.9 nM
SMILES: Cn1cnc2c1CC[C@H]2NC(=O)c1cn(Cc2ccc(N3CC4(CC4)C3)nc2Cl)cn1 [Example 21, 1-[(6-{5-Azaspiro[2.3]hexan-5-yl}-2-chloropyridin-3-yl)methyl]-N-[(4R)-1-methyl-1H,4H,5H,6H-cyclopenta[d]imidazol-4-yl]-1H-imidazole-4-carboxamide]

IC50 [1]: 286 nM | IC50 (Human PKK): 2 nM
SMILES: Cn1cnc2c1CC[C@H]2NC(=O)c1cn(Cc2ccc(N3CC4C(C3)C4(F)F)nc2F)nn1 (stereo partly drawn) [Example 25, 1-[(6-{6,6-Difluoro-3-azabicyclo[3.1.0]hexan-3-yl}-2-fluoropyridin-3-yl)methyl]-N-[(4R)-1-methyl-1H,4H,5H,6H-cyclopenta[d]imidazol-4-yl]-1H-1,2,3-triazole-4-carboxamide]

IC50 [1]: 184 nM | IC50 (Human PKK): 0.6 nM
SMILES: Cn1cnc2c1CC[C@H]2NC(=O)c1cn(Cc2ccc(N3CC4C(C3)C4(F)F)nc2Br)cn1 (stereo partly drawn) [Example 28, 1-[(2-Bromo-6-{6,6-difluoro-3-azabicyclo-[3.1.0]hexan-3-yl}pyridin-3-yl)methyl]-N-[(4R)-1-methyl-1H,4H,5H,6H-cyclopenta[d]imidazol-4-yl]-1H-imidazole-4-carboxamide]

Reference: patent publication US12479827B2, “Heteroaromatic carboxamide derivatives as plasma kallikrein inhibitors” (Boehringer Ingelheim International GmbH, priority 2020, dated 2025)
